According to the supplement of paper PMC10307832:

How the values were obtained:
Experiment in all cases: relative viability (nuclei count vs DMSO), 5 days (fraction); higher = more cells survive
[1] = compound: C1CNCCC1C2=CC(=NN2)C3=CC=NC=C3 + C[C@]1(O)C[C@@H](c2nc(-c3ccc4ccc(-c5ccccc5)nc4c3)c3c(N)nccn32)C1 [Linsitinib] (partner 1 µM)
Method in brief: (§1)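 Lung cancer cell lines, seeded in 1536-well plates, were treated the following day by pin tool with a single drug or with five library-drug doses (not always all listed) in √10 steps on top of a fixed anchor-drug dose. Cells were fixed and nuclei stained in one step after 5 days, and nuclei were counted. Relative viability is the nuclei count for treated wells divided by that for vehicle wells, reported as medians of duplicate plates.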

Tanzisertib + Linsitinib = compound: O[C@H]1CC[C@H](Nc2ncc3nc(Nc4c(F)cc(F)cc4F)n([C@H]4CCOC4)c3n2)CC1 [Tanzisertib] + C[C@]1(O)C[C@@H](c2nc(-c3ccc4ccc(-c5ccccc5)nc4c3)c3c(N)nccn32)C1 [Linsitinib] (partner 1 µM)
Method in brief: as §1

[2] = compound: C[C@@H](N)c1ccc(C(=O)Nc2ccnc3[nH]ccc23)cc1 + CC(=O)c1c(C)c2cnc(Nc3ccc(N4CCNCC4)cn3)nc2n(C2CCCC2)c1=O [Palbociclib] (partner 0.5 µM)
Method in brief: as §1

[3] = compound: C1CNCCC1C2=CC(=NN2)C3=CC=NC=C3 + N=C(N)NC(=N)NCCc1ccccc1 [Phenformin] (partner 250 µM)
Method in brief: as §1

**Q.** UMC-11 was tested. Which relative viability ([1]; first compound 0.08 µM) did it give?
**A.** 0.987

**Q.** What about the relative viability ([1]; first compound 0.8 µM) of the same cell line?
**A.** 1.08

**Q.** What about the relative viability ([1]; first compound 2.53 µM) of the same cell line?
**A.** 1.17

**Q.** And the relative viability ([1]; first compound 8 µM)?
**A.** 0.982

**Q.** What about the relative viability (Tanzisertib + Linsitinib; first compound 0.08 µM) of the same cell line?
**A.** 1

**Q.** What about the relative viability (Tanzisertib + Linsitinib; first compound 0.253 µM) of the same cell line?
**A.** 0.954

**Q.** What about the relative viability (Tanzisertib + Linsitinib; first compound 0.8 µM) of the same cell line?
**A.** 1.03

**Q.** And the relative viability (Tanzisertib + Linsitinib; first compound 2.53 µM)?
**A.** 0.988

**Q.** And the relative viability (Tanzisertib + Linsitinib; first compound 8 µM)?
**A.** 1.06

**Q.** And the relative viability ([2]; first compound 0.1265 µM)?
**A.** 0.334

**Q.** What about the relative viability ([2]; first compound 0.4 µM) of the same cell line?
**A.** 0.306

**Q.** What about the relative viability ([2]; first compound 1.265 µM) of the same cell line?
**A.** 0.29

**Q.** What about the relative viability ([2]; first compound 4 µM) of the same cell line?
**A.** 0.318

**Q.** What about the relative viability ([3]; first compound 0.08 µM) of the same cell line?
**A.** 0.325

**Q.** What about the relative viability ([3]; first compound 0.8 µM) of the same cell line?
**A.** 0.209

**Q.** What about the relative viability ([3]; first compound 2.53 µM) of the same cell line?
**A.** 0.348

**Q.** What about the relative viability ([3]; first compound 8 µM) of the same cell line?
**A.** 0.351
